Source: publication PMC12299847, “Macroalgae-Inspired Brominated Chalcones as Cosmetic Ingredients with the Potential to Target Skin Inflammaging” (Marine Drugs, 2025)

Assays:
RAW 264.7 macrophages = experiment: Resazurin cell viability assay in RAW 264.7 macrophages; format: cell-based, murine; conditions: RAW 264.7, 24 h, 2.5 to 125 μM
Description: To evaluate the effects of chalcones 1–7 on cell viability after 24 h, a resazurin assay was performed using two cell lines: human HaCaT keratinocytes (HaCaT, CLS 300493), representing the epidermal layer, and murine RAW 264.7 macrophages (RAW 264.7, ATCC TIB-71), which model immune cells involved in dermal inflammatory responses. For the keratinocyte cell line, all seven brominated and non-brominated chalcones were tested across a concentration range from 2.5 μM to 125 μM (Figure 2).
To evaluate the cytotoxic effects of brominated and non-brominated chalcones 1–7 on macrophages, different concentration ranges were applied based on the response profiles previously observed for keratinocytes (Figure 3). […] For this set of chalcones, a similar tendency was observed: a lower cytotoxic characteristic of chalcone 4, which contained bromine atoms in both aromatic rings, compared to chalcones 5 (brominated in only the aromatic A ring) and 6 (non-brominated).
Human keratinocytes (HaCaT, CLS 300493, Eppelheim, Germany) were cultured in DMEM supplemented with heat-inactivated FBS, and a penicillin and streptomycin antibiotic solution. The cell culture of keratinocytes was washed with 6 mL of phosphate buffer solution with 0.05% EDTA (Sigma-Aldrich, St. Louis, MO, USA) and detached using 3 mL of 0.05% trypsin + 0.02% EDTA in PBS solution when the cells reached 70–80% confluence in cell culture flasks. DMEM was also used to cultivate the mouse macrophage cell line (RAW 264.7, ATCC TIB-71, Manassas, VA, USA) together with 10% (v/v) non-inactivated FBS, 1.5 g/L sodium bicarbonate, and 100 U/mL penicillin and 100 μg/mL streptomycin stock (antibiotic solution). The macrophage culture was mechanically detached using a cell scraper, and the final amount of DMEM media with the cells was sub-cultured in a 1:10 ratio to the cellular suspension.
The resazurin reduction assay was employed to evaluate the metabolic activity of human epidermal keratinocyte (HaCaT) and murine macrophage (RAW264.7) cell lines, as outlined in a previous study. In brief, HaCaT cells (1.0 × 10^5 cells/mL) and RAW264.7 cells (5.0 × 10^4 cells/mL) were seeded in 96-well plates (200 μL/well) and incubated overnight at 37 °C to allow for cell attachment. Following this, the cells were treated with different concentrations of the test compounds and kept at 37 °C for 24 h. After 20 h, resazurin (500 μM in sterile phosphate buffer solution, pH 7.4) was added to each well to achieve a final concentration of 50 μM, followed by an additional incubation of 4 h. Absorbance was then measured at wavelengths of 570 and 620 nm using a SpectraMax Plus 384 absorbance microplate spectrophotometer (Molecular Devices, San Jose, CA, USA). Each experiment was conducted in triplicate, with a minimum of three independent assays. […]

Nrf2 = experiment: KeratinoSens assay, Nrf2 luciferase reporter; format: cell-based, human; conditions: 24 h, compared to vehicle (DMSO)
Description: The KeratinoSens™ assay was originally developed to assess the skin sensitization potential of Nrf2 activation, but it has also been utilized to evaluate the ability of natural compounds to induce this transcription factor [46, 47]. In this study, we assessed the capacity of chalcones 1 and 2 to activate Nrf2 after 24 and 48 h (Figure 8A–F).
Selected compounds (chalcones 1 and 2), and the positive control, DMF, were dissolved in sterile DMSO. Intermediate dilutions were prepared in culture medium, including the final concentration to be added to the 96-well plate, with a final volume of 200 µL per well. The KeratinoSens™ assay was conducted as previously described. In brief, cells were seeded at a density of 10,000 cells per well in 96-well white opaque plates (Greiner Bio-One GmbH, cat. no. 655083, Kremsmünster, Austria) and incubated for 24 h. The medium was then replaced with fresh medium containing 1% FBS and the test compounds, and cells were incubated for an additional 24 and 48 h. DMF was used as the positive control since it is a known Nrf2 activator. Cell viability was assessed in the same cells using resazurin. After 20 or 44 h of exposure to the test compounds, 50 µM of resazurin solution (in sterile PBS) was added to each well, and the plates were incubated for 4 h at 37 °C, 5% CO2 Following the resazurin incubation, the supernatant was transferred to a transparent 96-well plate, and absorbance was measured at 570 and 620 nm using a Synergy HT multi-mode microplate reader (BioTek, Bad Friedrichshall, Germany). To measure luciferase activity, cells in the white opaque 96-well plates were washed with 1× PBS. An equal volume of 1× PBS and lysis buffer (One-GLO Luciferase, cat. no. E6130, Promega, Madison, WI, USA) was added to the wells, and the plates were incubated for 20 min at room temperature. Luminescence was then measured using a FLUOstar OMEGA Microplate Reader (BMG Labtech GmbH, Ortenberg, Germany).
Figure 8 Nrf2 activation using the KeratinoSens™ assay in HaCaT cells transfected with an Nrf2 luciferase reporter construct, incubated for 24 h (A–C) or 48 h (D–F) with chalcones 1 and 2. DMF was used as a positive control. Data represent the results from four independent experiments. Non-linear regression analysis was performed using GraphPad Prism v.9.0.0 for Windows. The blue line represents the results of cell viability (% regarding the control) and the green line represents fold induction. Statistical analysis: one ANOVA with Dunnett’s multiple comparisons test, where significance includes. * p < 0.05, ** p < 0.01, *** p < 0.0005, and **** p < 0.0001.

Nrf2 mean fold induction (Nrf2; 7.5 µM): 3.49 fold
Structure (SMILES): COc1cc(Br)c(/C=C/C(=O)c2cc(OC)c(OC)cc2Br)cc1OC [Chalcone 1]
cytotoxicity towards macrophages (RAW 264.7 macrophages): no cytotoxicity
fold induction at 5 µM (Nrf2; Homo sapiens, 5 µM): 3.18
fold induction at 7.5 µM (Nrf2; Homo sapiens, 7.5 µM): ~3.5
